From publication PMC8284440, “Toward New Transmission-Blocking Combination Therapies: Pharmacokinetics of 10-Amino-Artemisinins and 11-Aza-Artemisinin and Comparison with Dihydroartemisinin and Artemether” (Antimicrobial Agents and Chemotherapy, 2021)
Where two headings read alike, the source gives them in different places.

Key:
[1] = system: early stage (>90% stage I-III) P. falciparum NF54 gametocytes; settings: cited from earlier work
[2] = Pharmacokinetics in mice, intravenous administration; type: in vivo, male C57/BL6 mice; settings: for AUC: 0 h to last, parent; for V: volume of distribution during elimination phase; for half-life / CLint scaled / clearance: male; for half-life: C57/BL6, iv, mouse plasma; for CLint scaled / clearance: C57/BL6, mouse, plasma, iv; for clearance: read-out: CLtot; for DHA detected as a metabolite: mouse PK studies, i.v. and p.o., LC-MS/MS
Protocol: (i) Animals. Healthy male C57/BL6 mice each weighing approximately 25 g were used. The mice maintained at the University of Cape Town animal facility were housed in 27 by 21 by 18 cm cages, under controlled environmental conditions at 22 ± 2°C and a 12-h light/dark cycle. Humidity was monitored and ranged between 55 and 70%. Food and water were available ad libitum. Mice were acclimatized to their environment for 7 days before experiments were initiated.
(iii) Intravenous drug administration. For the intravenous formulations, each of artemether, the amino-artemisinins 5 to 10, and 11-aza-artemisinin 11 (2.5 mg) was dissolved in 1 ml DMSO/PEG/PPG (1:3:6, vol/vol). DMSO was added first, followed by PEG and then PPG. The resulting solutions in the mixture of DMSO, PEG, and PPG (1:3:6, vol/vol) were administered intravenously at a dose of 10 mg/kg (n = 3) via injection into the dorsal penile vein. Mice were anesthetized with an intraperitoneal injection of a saline ketamine/xylazine solution. This consisted of 1 ml ketamine (100 mg/ml), 0.5 ml xylazine (20 mg/ml), and 8.5 ml PBS solution to make a total volume of 10 ml. Dosage of anesthetic preparation for mice was […]; this amounts to a dose of 80 mg/kg ketamine and 10 mg/kg xylazine. The total volume of administration was dose adjusted to 10 mg/kg with an approximate volume of 80 μl, according to the weight of each animal on the morning of dosing. Blood samples for the amino-artemisinins 5 to 8 and 10 were collected via tail-bleeding predose and at 0.08, 0.25, 0.5, 1, 2, and 4 h, and blood samples for the phenylurea 9 and 11-aza-artemisinin 11 were collected at 0.08, 0.5, 1, 2, 4, 8, and 24 h postdose. Samples were all placed in 0.5 ml lithium heparin microvials to prevent blood coagulation. The samples were immediately centrifuged at 5,590 × g for 5 min and the plasma was transferred to new microvials. The plasma samples were stored at −80°C.
Sample extraction. […] The organic layer was then transferred and evaporated under a gentle stream of nitrogen at room temperature for 30 min. The dried samples were reconstituted in mobile phase, and a 5 μl sample was injected for LC-MS/MS analysis. The only exception was the arylurea 10, for which no liquid-liquid extraction was conducted; instead, the 200 μl acetonitrile solution was evaporated under a gentle stream of nitrogen at room temperature. The dried sample was reconstituted in the mobile phase, and a 5 μl sample was injected for LC-MS/MS analysis. The plasma samples for each compound from the in vivo studies were extracted by mixing 350 μl ethyl acetate with 15 μl of plasma sample and 35 μl of universal buffer containing internal standard at pH 8. The samples were vortexed for 1 min and centrifuged for 5 min, and the organic layer was then transferred and evaporated under a gentle stream of nitrogen at room temperature for 30 min. The dried samples were each reconstituted in the mobile phase, and a 5 μl sample was injected for LC-MS/MS analysis.
LC-MS/MS analysis. For all the artemisinins except the arylurea 10, gradient chromatography was performed on a Phenomenex (Torrance, CA, USA) Luna PFP(2) analytical column (100 Å, 5 μm, 2 by 50 mm) and an AB Sciex API 5500 mass spectrometer which was operated at unit resolution in the multiple reaction monitoring (MRM) mode. The HPLC method used was a gradient method with 5 mM ammonium acetate and 0.1% acetic acid in water as the aqueous phase and a mixture of acetonitrile and methanol (1:1 vol/vol) containing 5% of the aqueous phase as the organic phase ([89]). The arylurea 10 was analyzed using a Phenomenex Gemini NX-C18 (5 μm, 2.1 mm by 50 mm) column with an AB Sciex 3200 QTRAP mass spectrometer operated at unit resolution in the MRM mode. The HPLC method used was a gradient method with 5 mM ammonium acetate and 0.1% acetic acid in water as the aqueous phase and a mixture of acetonitrile and methanol (1:1 vol/vol).

[3] = Plasma protein binding (ultracentrifugation); type: in vitro ADME; settings: pooled plasma, human plasma, read-out: Plasma protein binding fu
Protocol: (iii) Plasma protein binding. Plasma protein binding was measured using an ultracentrifugation method. The assay was performed using a 96-well microtiter plate with pooled human plasma spiked with the test compound (10 μM). […] This served as the total concentration sample. After preincubation at 37°C for 1 h, duplicate aliquots of the spiked plasma were transferred to ultracentrifugation tubes and ultracentrifuged for 4 h (216,937 × g, 37°C, Beckman Optima L-80XP). […] Sample extraction. […] LC-MS/MS analysis.

[4] = system: late stage (>90% stage IV and V) P. falciparum NF54 gametocytes; settings: cited from earlier work
[5] = Table S4, ± SEM, n = 3, ref 4 (supplement; main text 62), read-out: Early stage IC50 (Luciferase 48 h)
[6] = 10 mg/kg, i.v. 10 mg/kg, total plasma clearance
[7] = Table S4, n = 1, ref 4 (supplement; main text 62), read-out: Late stage IC50 (Luciferase 72 h)
[8] = Table S3, ± SEM, ref 1 and 2 (supplement; main text 47, 48), read-out: Early Stage (EG, Luc 48 h) IC50
[9] = Table S3, ± SEM, ref 1 and 2 (supplement; main text 47, 48), read-out: Late Stage (LG, Luc 72 h) IC50
[10] = metabolite formed from i.v. artemiside 5, 10 mg/kg

| AUC of metabolite ([2]; metabolite formed from i.v. artemisone, 10 mg/kg) | Compound | IC50 [1, 5] | AUC ([2]; i.v. 10 mg/kg) | V ([2]; i.v. 10 mg/kg) | half-life ([2]; i.v. 10 mg/kg) | CLint scaled ([2]; 10 mg/kg) | clearance [2, 6] | DHA detected as a metabolite ([2]; listed as 11-Aza-artemisinin) | DHA detected as a metabolite ([2]; listed as 11-aza-artemisinin) | fraction unbound at 4 h, 10 µM [3] | IC50 [4, 7] | IC50 [1, 8] | CLtot ([2]; i.v. 10 mg/kg, total plasma clearance, 10 mg/kg) | DHA detected as a metabolite [2] | IC50 [4, 9] | AUC of metabolite [2, 10] | AUC of metabolite ([2]; metabolite formed from i.v. artemether 3, 10 mg/kg) |
| --- | --- | --- | --- | --- | --- | --- | --- | --- | --- | --- | --- | --- | --- | --- | --- | --- | --- |
|  | C[C@@H]1CC[C@H]2[C@@H](C)C(=O)N[C@@H]3O[C@@]4(C)CC[C@@H]1[C@]32OO4 [11-Aza-artemisinin 11, 11-aza-artemisinin] | 0.17 µM | 462.7 ± 117 min/µmol/L | 19.4 ± 7.5 L/kg | 3.1 ± 0.8 h | 577 mL/min/kg | 75 ± 8.9 mL/min/kg | could not be detected | not detected | 0.13 | 0.166 µM |  |  |  |  |  |  |
|  | CO[C@H]1O[C@@H]2O[C@@]3(C)CC[C@H]4[C@H](C)CC[C@@H]([C@H]1C)[C@@]24OO3 [Artemether 3, artemether] | 0.0377 ± 0.00208 µM | 304.4 ± 80 min/µmol/L | 14.1 ± 1.3 L/kg | 1.4 ± 0.2 h | 855 mL/min/kg | 120 ± 39 mL/min/kg |  |  | 0.14 | 0.224 µM |  |  |  |  |  |  |
|  | C[C@H]1[C@H](N2CCSCC2)O[C@@H]2O[C@@]3(C)CC[C@H]4[C@H](C)CC[C@@H]1[C@@]24OO3 [Artemiside 5, artemiside] |  | 184.9 ± 43 min/µmol/L | 24.3 ± 9.3 L/kg | 1.8 ± 0.5 h | 674 mL/min/kg | 130 mL/min/kg |  |  | 0.23 |  | 0.0164 ± 0.001 µM | 155.0 ± 46.4 mL/min/kg | not detected | 0.0015 ± 0.0005 µM |  |  |
|  | C[C@H]1[C@H](N2CCS(=O)(=O)CC2)O[C@@H]2O[C@@]3(C)CC[C@H]4[C@H](C)CC[C@@H]1[C@@]24OO3 [Artemisone 6, artemisone] |  | 577.5 ± 30 min/µmol/L | 1.9 ± 0.1 L/kg | 0.5 ± 0.03 h | 302 mL/min/kg | 42.3 ± 2.1 mL/min/kg |  |  | 0.14 |  | 0.00194 µM |  | not detected | 0.0424 ± 0.0033 µM | 28.9 ± 1 min/µmol/L |  |
|  | C[C@H]1[C@H](N2CCN(C(=O)Nc3ccc(F)cc3)CC2)O[C@@H]2O[C@@]3(C)CC[C@H]4[C@H](C)CC[C@@H]1[C@@]24OO3 [Arylurea 10] |  | 315.9 ± 33 min/µmol/L | 6.92 ± 2.9 L/kg | 1.3 ± 0.3 h | 2940 mL/min/kg | 58.9 ± 3.5 mL/min/kg |  |  | 0.02 |  | 0.036 ± 0.0102 µM |  |  | 0.017 ± 0.007 µM |  |  |
|  | C[C@H]1[C@@H](O)O[C@@H]2O[C@@]3(C)CC[C@H]4[C@H](C)CC[C@@H]1[C@@]24OO3 [DHA 2, dihydroartemisinin] |  |  |  |  |  |  |  |  |  |  | 0.043 ± 0.0039 µM |  |  | 0.0337 ± 0.00198 µM |  | 155 ± 17 min/µmol/L |
| 60.6 ± 36 min/µmol/L | C[C@H]1[C@H](N2C=CS(=O)(=O)CC2)O[C@@H]2O[C@@]3(C)CC[C@H]4[C@H](C)CC[C@@H]1[C@@]24OO3 [M1 12] |  |  |  |  |  |  |  |  | 0.25 |  |  |  |  |  | 13.8 ± 9 min/µmol/L |  |
|  | C[C@H]1[C@H](NS(N)(=O)=O)O[C@@H]2O[C@@]3(C)CC[C@H]4[C@H](C)CC[C@@H]1[C@@]24OO3 [Sulfamide 7] |  | 864.1 ± 213 min/µmol/L | 1.63 ± 0.4 L/kg | 0.6 ± 0.1 h | 189 mL/min/kg | 32.2 ± 6.2 mL/min/kg |  |  | 0.17 |  | 0.015 ± 0.002 µM |  | not detected | 0.419 µM |  |  |
